According to ChEMBL document CHEMBL1201862, “PubChem BioAssay data set” (2004):
Activity calls are given as the source filed them.

Legend:
cells = type: functional
[1] = molecular target: T1, Glycogen synthase kinase-3 alpha (Homo sapiens, UniProt P49840); test: Inhibition of Human GSK-3 alpha Activity Measured in Biochemical System Using Microfluidics - 2063-06_Inhibitor_Dose_DryPowder_Activity_Set2. [Related pubchem assays (depositor defined):AID2709]
[2] = molecular target: T2, Low molecular weight phosphotyrosine protein phosphatase (Homo sapiens, UniProt P24666); type: functional; conditions: read-out: IC50_Mean
T2 sequence (P24666 whole entry): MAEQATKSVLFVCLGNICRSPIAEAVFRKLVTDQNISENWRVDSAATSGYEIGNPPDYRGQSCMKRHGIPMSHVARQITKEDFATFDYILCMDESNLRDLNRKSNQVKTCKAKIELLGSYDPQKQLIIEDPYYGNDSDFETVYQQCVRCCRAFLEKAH

[3] = molecular target: T2, Low molecular weight phosphotyrosine protein phosphatase; type: functional; conditions: read-out: IC50_Mean; remark: listed apart in the source
[4] = molecular target: Glycogen synthase kinase-3 beta (Homo sapiens, UniProt P49841); test: Inhibition of Human GSK-3 beta Activity Measured in Biochemical System Using Microfluidics - 2063-05_Inhibitor_Dose_DryPowder_Activity_Set2. [Related pubchem assays (depositor defined):AID2709]
[5] = molecular target: T3, DNA dC->dU-editing enzyme APOBEC-3A (Homo sapiens, UniProt P31941); test: SAR analysis of small molecule inhibitors of APOBEC3A DNA Deaminase via a fluorescence-based single-stranded DNA deaminase assay.; type: functional; conditions: read-out: IC50_Mean
T3 sequence (P31941 whole entry): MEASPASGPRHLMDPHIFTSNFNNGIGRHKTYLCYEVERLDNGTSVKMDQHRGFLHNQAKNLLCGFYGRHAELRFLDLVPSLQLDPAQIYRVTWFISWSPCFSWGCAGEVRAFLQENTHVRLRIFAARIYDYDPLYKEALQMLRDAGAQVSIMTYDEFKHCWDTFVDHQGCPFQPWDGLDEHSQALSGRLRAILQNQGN

[6] = molecular target: T4, DNA dC->dU-editing enzyme APOBEC-3G (Homo sapiens, UniProt Q9HC16); test: inhibition of APOBEC3G ssDNA deamination – biochemical, fluorescence, single-stranded DNA substrate, SAR follow-up (AID 602136); type: functional; conditions: read-out: IC50_Mean
T4 sequence (Q9HC16 whole entry): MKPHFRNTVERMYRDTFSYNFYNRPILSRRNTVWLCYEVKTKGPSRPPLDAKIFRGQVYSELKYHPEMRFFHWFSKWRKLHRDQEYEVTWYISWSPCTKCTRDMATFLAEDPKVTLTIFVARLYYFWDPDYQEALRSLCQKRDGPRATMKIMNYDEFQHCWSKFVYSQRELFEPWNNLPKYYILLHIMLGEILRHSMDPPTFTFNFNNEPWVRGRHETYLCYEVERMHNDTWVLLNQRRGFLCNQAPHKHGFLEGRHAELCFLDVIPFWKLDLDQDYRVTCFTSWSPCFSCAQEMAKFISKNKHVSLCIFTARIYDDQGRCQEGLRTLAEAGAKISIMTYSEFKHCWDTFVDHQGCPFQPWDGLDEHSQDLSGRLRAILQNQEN

[7] = Trypanosoma cruzi growth suppression in host cells – NIH3T3 host cells, beta-gal luminescence, confirmation (AID 2044); type: functional, cell-based;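 also: intracellular parasites grown in NIH/3T3 mouse fibroblasts as host cells; luminescent beta-galactosidase reporter signal from transgenic T. cruzi replicating inside host cells; inhibitors lower the luminescence signal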
[8] = NIH3T3 cell viability loss – ATP luminescence, mouse fibroblasts, counter-screen, dose response (AID 2010); type: functional, cell-based;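 also: cells exposed to compound for about 90 hours before reading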
Prothrombin = Prothrombin (Bos taurus, UniProt P00735); test: thrombin protease inhibitors – biochemical, fluorescence polarization, uHTS hits, dose response (AID 602369); type: functional
[9] = molecular target: 26S proteasome non-ATPase regulatory subunit 14 (Homo sapiens, UniProt O00487); test: inhibition of proteasome subunit RPN11 – biochemical, fluorescence polarization, uHTS hits, confirmation (AID 602368); type: functional
Chain of 26S proteasome non-ATPase regulatory subunit 14 (O00487 whole entry): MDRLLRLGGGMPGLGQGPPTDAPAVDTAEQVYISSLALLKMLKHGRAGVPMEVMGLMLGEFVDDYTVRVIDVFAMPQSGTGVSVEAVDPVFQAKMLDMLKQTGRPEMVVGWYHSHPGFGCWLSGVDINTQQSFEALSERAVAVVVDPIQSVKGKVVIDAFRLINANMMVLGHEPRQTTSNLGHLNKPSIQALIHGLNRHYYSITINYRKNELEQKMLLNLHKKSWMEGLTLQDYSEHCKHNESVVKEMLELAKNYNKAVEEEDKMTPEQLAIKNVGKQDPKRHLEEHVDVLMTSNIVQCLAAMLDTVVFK

Streptococcus = test: GAS UMAA2166 growth inhibition – luminescence, BacTiterGlo, counter-screen for streptokinase expression inhibitor project, dose response (AID 1915); type: functional, organism-based;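 also: potency for reduction of bacterial viability or growth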
[10] = molecular target: 72 kDa type IV collagenase (Homo sapiens, UniProt P08253); test: Dose Response validation of uHTS RPN11 inhibitor hits using a MMP-2 Fluorescence assay.; type: functional
[11] = test system: Streptococcus sp. 'group A'; test: Streptococcus pyogenes SK(-)GAS viability under kanamycin – luminescence, BacTiterGlo, confirmation, counter-screen for streptokinase expression inhibitor project, dose response (AID 1900); type: functional, organism-based
[12] = molecular target: T5, High affinity choline transporter 1 (Homo sapiens, UniProt Q9GZV3); test: human choline transporter potentiators, potency – cell-based, 10-point CRC, membrane potential dye, dose response (AID 602376); type: functional
T5 sequence (Q9GZV3 whole entry): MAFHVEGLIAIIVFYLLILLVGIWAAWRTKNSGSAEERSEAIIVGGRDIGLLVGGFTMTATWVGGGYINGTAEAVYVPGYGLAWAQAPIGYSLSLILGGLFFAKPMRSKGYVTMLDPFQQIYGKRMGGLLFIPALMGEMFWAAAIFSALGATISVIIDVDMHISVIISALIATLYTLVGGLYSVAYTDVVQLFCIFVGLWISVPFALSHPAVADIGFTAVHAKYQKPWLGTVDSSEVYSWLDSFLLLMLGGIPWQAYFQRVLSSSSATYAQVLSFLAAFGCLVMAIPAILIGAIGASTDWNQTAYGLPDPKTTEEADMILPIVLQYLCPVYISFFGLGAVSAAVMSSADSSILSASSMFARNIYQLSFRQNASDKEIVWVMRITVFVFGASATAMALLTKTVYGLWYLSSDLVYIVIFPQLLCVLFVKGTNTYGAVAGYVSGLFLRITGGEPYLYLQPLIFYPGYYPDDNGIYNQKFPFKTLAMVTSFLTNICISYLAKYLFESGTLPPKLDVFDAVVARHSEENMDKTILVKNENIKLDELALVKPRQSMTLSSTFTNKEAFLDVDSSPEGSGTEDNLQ

[13] = molecular target: Sphingosine 1-phosphate receptor 2 (Homo sapiens, UniProt O95136); test: Late-stage fluorescence-based dose-response cell-based counterscreen assay to identify agonists of the Sphingosine 1-Phosphate Receptor 3 (S1P3): Sphingosine 1-Phosphate Receptor 2 (S1P2) agonist assay.; type: functional
[14] = molecular target: Sphingosine 1-phosphate receptor 4 (Homo sapiens, UniProt O95977); test: Late-stage fluorescence-based dose-response cell-based counterscreen assay to identify agonists of the Sphingosine 1-Phosphate Receptor 3 (S1P3): Sphingosine 1-Phosphate Receptor 4 (S1P4) agonist assay.; type: functional
[15] = molecular target: T4, DNA dC->dU-editing enzyme APOBEC-3G; test: SAR analysis of small molecule inhibitors of APOBEC3G DNA Deaminase via a fluorescence-based single-stranded DNA deaminase assay - Set 2.; type: functional; conditions: read-out: IC50_Mean
[16] = molecular target: T3, DNA dC->dU-editing enzyme APOBEC-3A; test: SAR analysis of small molecule inhibitors of APOBEC3A DNA Deaminase via a fluorescence-based single-stranded DNA deaminase assay - Set 2.; type: functional; conditions: read-out: IC50_Mean
LIM domain kinase 1 = LIM domain kinase 1 (Homo sapiens, UniProt P53667); test: Navigating the Kinome. Panel member name: LIMK1; type: functional
Aurora kinase B = Aurora kinase B (Homo sapiens, UniProt Q96GD4); type: functional
[17] = molecular target: Dual specificity protein kinase CLK2 (Homo sapiens, UniProt P49760); type: functional
Activin receptor type-1 = Activin receptor type-1 (Homo sapiens, UniProt Q04771); test: Navigating the Kinome. Panel member name: ACVR1; type: functional
[18] = molecular target: Fibroblast growth factor receptor 1 (Homo sapiens, UniProt P11362); type: functional
[19] = molecular target: Cyclin-dependent kinase 7 (Homo sapiens, UniProt P50613); type: functional;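 also: value comes from a kinome-wide kinase profiling panel in which CDK7 is one member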
[20] = molecular target: Dual specificity tyrosine-phosphorylation-regulated kinase 1B (Homo sapiens, UniProt Q9Y463); test: Navigating the Kinome. Panel member name: DYRK1B; type: functional
[21] = molecular target: Dual specificity tyrosine-phosphorylation-regulated kinase 1A (Homo sapiens, UniProt Q13627); type: functional;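 also: measured against DYRK1A as one member of a broad kinome profiling panel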
[22] = molecular target: Tyrosine-protein kinase JAK3 (Homo sapiens, UniProt P52333); type: functional
Chain of Tyrosine-protein kinase JAK3 (P52333 whole entry): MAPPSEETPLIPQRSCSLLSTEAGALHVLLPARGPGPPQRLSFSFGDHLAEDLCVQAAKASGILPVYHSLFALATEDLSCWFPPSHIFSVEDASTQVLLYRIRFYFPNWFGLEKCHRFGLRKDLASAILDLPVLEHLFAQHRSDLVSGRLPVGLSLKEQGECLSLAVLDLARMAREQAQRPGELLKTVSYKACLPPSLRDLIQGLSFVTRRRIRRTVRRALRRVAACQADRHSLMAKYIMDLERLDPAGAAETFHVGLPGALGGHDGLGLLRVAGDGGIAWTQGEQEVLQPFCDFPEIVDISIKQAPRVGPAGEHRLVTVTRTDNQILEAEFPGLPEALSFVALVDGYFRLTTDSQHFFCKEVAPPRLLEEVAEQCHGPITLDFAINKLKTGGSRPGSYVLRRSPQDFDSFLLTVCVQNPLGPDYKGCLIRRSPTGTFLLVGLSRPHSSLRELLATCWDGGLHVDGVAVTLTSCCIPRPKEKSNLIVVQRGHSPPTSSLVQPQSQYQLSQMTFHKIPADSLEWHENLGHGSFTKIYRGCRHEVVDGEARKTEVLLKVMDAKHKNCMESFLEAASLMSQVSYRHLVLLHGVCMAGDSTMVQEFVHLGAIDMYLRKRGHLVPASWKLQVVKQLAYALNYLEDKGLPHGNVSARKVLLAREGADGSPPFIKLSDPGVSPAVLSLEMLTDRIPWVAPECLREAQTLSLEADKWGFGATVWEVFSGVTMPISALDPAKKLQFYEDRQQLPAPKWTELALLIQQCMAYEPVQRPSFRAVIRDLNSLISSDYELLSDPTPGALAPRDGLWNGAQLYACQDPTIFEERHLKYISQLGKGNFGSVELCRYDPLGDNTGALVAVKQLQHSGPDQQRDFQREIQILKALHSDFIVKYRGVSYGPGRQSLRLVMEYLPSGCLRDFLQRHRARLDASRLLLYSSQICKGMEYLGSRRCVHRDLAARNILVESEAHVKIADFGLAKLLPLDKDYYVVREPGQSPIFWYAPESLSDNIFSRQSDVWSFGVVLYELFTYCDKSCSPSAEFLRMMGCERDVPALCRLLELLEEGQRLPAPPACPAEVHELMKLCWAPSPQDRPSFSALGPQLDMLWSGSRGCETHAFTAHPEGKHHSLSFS

[23] = molecular target: Serine/threonine-protein kinase PAK 4 (Homo sapiens, UniProt O96013); type: functional;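 also: value obtained within a kinome profiling panel in which PAK4 was one of the panel members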
[24] = molecular target: G protein-coupled receptor kinase 5 (Homo sapiens, UniProt P34947); test: Navigating the Kinome. Panel member name: GPRK5; type: functional
Chain of G protein-coupled receptor kinase 5 (P34947 whole entry): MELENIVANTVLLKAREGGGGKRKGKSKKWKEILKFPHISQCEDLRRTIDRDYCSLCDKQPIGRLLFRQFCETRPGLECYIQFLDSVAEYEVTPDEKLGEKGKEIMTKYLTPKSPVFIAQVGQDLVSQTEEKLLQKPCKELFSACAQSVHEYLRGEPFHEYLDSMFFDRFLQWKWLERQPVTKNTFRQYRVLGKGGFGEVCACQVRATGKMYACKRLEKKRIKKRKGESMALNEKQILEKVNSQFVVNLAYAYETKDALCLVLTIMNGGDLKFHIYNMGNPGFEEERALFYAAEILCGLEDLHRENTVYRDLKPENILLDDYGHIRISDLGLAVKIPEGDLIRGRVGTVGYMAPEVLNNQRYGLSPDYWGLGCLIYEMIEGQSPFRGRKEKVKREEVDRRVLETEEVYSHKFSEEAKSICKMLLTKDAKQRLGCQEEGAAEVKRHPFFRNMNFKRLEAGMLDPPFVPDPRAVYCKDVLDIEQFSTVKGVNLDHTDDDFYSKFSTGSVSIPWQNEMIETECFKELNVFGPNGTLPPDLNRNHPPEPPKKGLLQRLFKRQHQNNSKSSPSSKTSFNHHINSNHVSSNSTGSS

[25] = molecular target: Dual specificity protein kinase CLK4 (Homo sapiens, UniProt Q9HAZ1); type: functional
[26] = molecular target: Calcium/calmodulin-dependent protein kinase type II subunit alpha (Homo sapiens, UniProt Q9UQM7); test: Navigating the Kinome. Panel member name: CAMK2A; type: functional
Chain of Calcium/calmodulin-dependent protein kinase type II subunit alpha (Q9UQM7 whole entry): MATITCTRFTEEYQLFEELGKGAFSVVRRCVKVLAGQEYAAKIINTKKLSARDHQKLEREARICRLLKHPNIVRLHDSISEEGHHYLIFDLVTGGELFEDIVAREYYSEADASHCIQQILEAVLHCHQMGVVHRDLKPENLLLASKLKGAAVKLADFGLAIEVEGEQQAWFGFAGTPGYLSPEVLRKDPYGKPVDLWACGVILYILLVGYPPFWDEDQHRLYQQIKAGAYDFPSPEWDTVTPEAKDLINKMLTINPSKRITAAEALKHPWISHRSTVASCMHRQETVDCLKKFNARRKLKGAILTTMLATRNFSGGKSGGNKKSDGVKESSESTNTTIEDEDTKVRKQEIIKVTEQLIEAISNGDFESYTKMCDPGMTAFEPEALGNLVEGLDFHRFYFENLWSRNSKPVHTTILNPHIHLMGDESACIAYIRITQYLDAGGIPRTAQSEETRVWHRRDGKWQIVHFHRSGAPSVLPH

[27] = molecular target: Mitogen-activated protein kinase 14 (Homo sapiens, UniProt Q16539); type: functional;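 also: part of a kinome-wide panel, MAPK14 entry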
Chain of Mitogen-activated protein kinase 14 (Q16539 whole entry): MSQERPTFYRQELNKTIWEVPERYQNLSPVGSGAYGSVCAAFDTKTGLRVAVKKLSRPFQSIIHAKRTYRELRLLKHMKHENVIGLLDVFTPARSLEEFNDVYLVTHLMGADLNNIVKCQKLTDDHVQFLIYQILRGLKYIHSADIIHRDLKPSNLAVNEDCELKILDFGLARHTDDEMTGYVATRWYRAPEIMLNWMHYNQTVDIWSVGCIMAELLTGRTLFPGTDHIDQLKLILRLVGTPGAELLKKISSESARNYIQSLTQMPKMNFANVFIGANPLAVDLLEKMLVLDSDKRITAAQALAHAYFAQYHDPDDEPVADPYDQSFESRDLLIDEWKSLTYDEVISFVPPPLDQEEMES

[28] = molecular target: T1, Glycogen synthase kinase-3 alpha; type: functional
[29] = molecular target: Serine/threonine-protein kinase D3 (Homo sapiens, UniProt O94806); type: functional;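 also: determined within a kinase panel screen, with PRKCN as the panel member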
Chain of Serine/threonine-protein kinase D3 (O94806 whole entry, canonical isoform): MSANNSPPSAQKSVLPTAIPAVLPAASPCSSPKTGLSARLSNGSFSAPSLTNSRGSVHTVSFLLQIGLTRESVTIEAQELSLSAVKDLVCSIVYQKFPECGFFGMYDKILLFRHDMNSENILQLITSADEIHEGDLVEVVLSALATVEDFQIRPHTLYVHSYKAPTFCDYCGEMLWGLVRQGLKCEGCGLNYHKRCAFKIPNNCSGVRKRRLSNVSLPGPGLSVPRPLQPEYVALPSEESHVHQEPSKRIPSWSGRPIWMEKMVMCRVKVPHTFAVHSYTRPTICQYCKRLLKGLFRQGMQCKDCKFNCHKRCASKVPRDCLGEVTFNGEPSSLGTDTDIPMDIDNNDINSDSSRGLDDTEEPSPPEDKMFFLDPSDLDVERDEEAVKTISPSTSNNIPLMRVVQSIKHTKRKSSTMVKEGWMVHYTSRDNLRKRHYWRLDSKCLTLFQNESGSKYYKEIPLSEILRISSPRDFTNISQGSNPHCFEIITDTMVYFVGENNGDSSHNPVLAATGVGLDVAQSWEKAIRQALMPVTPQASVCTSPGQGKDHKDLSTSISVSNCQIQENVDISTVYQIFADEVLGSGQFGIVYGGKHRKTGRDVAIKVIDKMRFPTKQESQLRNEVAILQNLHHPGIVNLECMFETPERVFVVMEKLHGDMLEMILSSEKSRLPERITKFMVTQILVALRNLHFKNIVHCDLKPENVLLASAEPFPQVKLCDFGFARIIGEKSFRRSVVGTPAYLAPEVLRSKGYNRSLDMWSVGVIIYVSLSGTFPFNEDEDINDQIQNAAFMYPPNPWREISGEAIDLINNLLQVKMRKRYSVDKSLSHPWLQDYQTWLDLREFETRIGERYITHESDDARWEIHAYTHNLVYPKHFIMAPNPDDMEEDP

[30] = molecular target: Casein kinase I isoform alpha (Homo sapiens, UniProt P48729); type: functional

T1 sequence (P49840 whole entry): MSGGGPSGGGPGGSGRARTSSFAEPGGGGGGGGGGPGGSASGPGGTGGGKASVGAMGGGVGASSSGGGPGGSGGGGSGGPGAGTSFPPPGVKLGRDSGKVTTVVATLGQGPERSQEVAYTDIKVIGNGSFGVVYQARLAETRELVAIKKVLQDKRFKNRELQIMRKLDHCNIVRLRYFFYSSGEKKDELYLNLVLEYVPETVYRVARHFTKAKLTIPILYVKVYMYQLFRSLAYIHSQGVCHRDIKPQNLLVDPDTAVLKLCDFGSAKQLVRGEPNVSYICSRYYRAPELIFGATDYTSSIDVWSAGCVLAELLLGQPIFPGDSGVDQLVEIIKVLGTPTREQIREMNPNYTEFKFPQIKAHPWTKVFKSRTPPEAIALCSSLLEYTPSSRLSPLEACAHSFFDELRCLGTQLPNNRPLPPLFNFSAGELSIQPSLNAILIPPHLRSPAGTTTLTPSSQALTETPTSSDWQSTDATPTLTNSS

c1ccc(-c2nc(NCCCn3ccnc3)c3ccccc3n2)cc1
active: IC50 (cells) 20.1 µM | AC50 [1] 11.2 µM | IC50 [2] 13.9 µM | AC50 [4] 8.78 µM
inactive: IC50 [3] 39 µM

Cc1c(CNCc2cccc(Br)c2)c(C(=O)O)c(C)n1Cc1ccc(F)cc1
inactive: IC50 [5] > 99 µM | IC50 [6] > 99 µM

COc1ccc2oc(C(=O)Nc3nc(-c4ccccn4)cs3)c(C)c2c1
inactive: IC50 [10] > 100 µM
active: EC50 [7] 1.22 µM | EC50 [8] 18.9 µM | IC50 (Prothrombin) 69.4 µM | IC50 [9] 34.1 µM | EC50 (Streptococcus) 1.52 µM | EC50 [11] 0.915 µM

COc1ccc(C)cc1Nc1n[n+](-c2ccccc2)c(-c2ccc(SC)cc2)s1
active: EC50 [12] 15.5 µM

CC(C)c1cc(C(=O)N(C2CCCCC2)C2CCCCC2)no1
inactive: EC50 [13] > 50 µM | EC50 [14] > 50 µM

CCc1nc2sc3c(c2c2nnc(SC)n12)CCC(C)C3 (stereo unspecified)
inactive: IC50 [15] > 99 µM | IC50 [16] > 99 µM

Nc1ncnc2nc3ccccc3n12
active: Ki (LIM domain kinase 1) 63.1 µM | Ki [17] 39.8 µM | Ki [20] 20 µM | Ki [21] 39.8 µM | Ki [25] 7.94 µM | Ki [30] 20 µM
inactive: Ki (Aurora kinase B) > 79.4 µM | Ki (Activin receptor type-1) > 79.4 µM | Ki [18] > 79.4 µM | Ki [19] > 79.4 µM | Ki [22] > 100 µM | Ki [23] > 100 µM | Ki [24] > 79.4 µM | Ki [26] > 79.4 µM | Ki [27] > 79.4 µM | Ki [28] > 79.4 µM | Ki [29] > 79.4 µM
